The source made the active and inactive calls. Cut-off read from the data, not from the text of the source, for most assays here: actives have a measured EC50 and inactives only a lower limit.
Experiments:
[1] = biological target: T1, Endoribonuclease toxin MazF (Escherichia coli K-12, UniProt P0AE70); assay: MazF toxin RNase activators, dose response, biochemical, fluorescence, single-stranded RNA substrate, uHTS hits (AID 588481); format: functional
T1 sequence (P0AE70 whole entry): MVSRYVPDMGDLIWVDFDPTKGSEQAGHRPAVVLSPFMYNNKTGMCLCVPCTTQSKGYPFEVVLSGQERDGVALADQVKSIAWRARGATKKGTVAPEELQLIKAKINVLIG

[2] = biological target: T1, Endoribonuclease toxin MazF; assay: fluorescent RNA oligo signal without MazF, dose response, counter-screen for MazEF activator project, biochemical, fluorescence, single-stranded RNase substrate (AID 588502); format: functional
[3] = biological target: ATP-dependent molecular chaperone HSP82 (Candida albicans (strain WO-1) (Yeast), UniProt C4YTQ8); assay: loss of DOC-induced GRE-beta-galactosidase reporter signal, dose response, Hsp90 inhibitor project, S. cerevisiae, luminescence (AID 2400); format: functional, cell-based;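 note: beta-galactosidase luminescence from glucocorticoid response element reporter as proxy for Hsp90 function; inhibitor potency where signal loss means Hsp90 inhibition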
[4] = C. albicans growth with fluconazole, confirmation, fluorescence, retest (AID 2467); format: functional, cell-based
[5] = NIH-3T3 fibroblast cytotoxicity, dose response, cytotoxicity control, cell-based, fluorescence, Alamar Blue, secondary assay (AID 2327); format: functional;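 note: NIH-3T3 mouse fibroblasts cultured with fluconazole at 8 µg/mL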
[6] = biological target: T2, Serine/threonine-protein phosphatase (Candida dubliniensis (strain CD36 / CBS 7987 / NCPF 3949 / NRRLY-17841) (Yeast), UniProt B9W6M3); assay: calcineurin pathway inhibitors in yeast reporter, dose response, S. cerevisiae, CDRE-lacZ, luminescence, secondary (AID 2388); format: functional, cell-based;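 note: yeast reporter cells carrying a calcineurin-responsive lacZ construct stimulated with calcium chloride; luminescent beta-galactosidase reporter signal in whole cells rather than isolated phosphatase activity; potency for inhibition where a drop in reporter signal means calcineurin blockade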
T2 sequence (B9W6M3 whole entry): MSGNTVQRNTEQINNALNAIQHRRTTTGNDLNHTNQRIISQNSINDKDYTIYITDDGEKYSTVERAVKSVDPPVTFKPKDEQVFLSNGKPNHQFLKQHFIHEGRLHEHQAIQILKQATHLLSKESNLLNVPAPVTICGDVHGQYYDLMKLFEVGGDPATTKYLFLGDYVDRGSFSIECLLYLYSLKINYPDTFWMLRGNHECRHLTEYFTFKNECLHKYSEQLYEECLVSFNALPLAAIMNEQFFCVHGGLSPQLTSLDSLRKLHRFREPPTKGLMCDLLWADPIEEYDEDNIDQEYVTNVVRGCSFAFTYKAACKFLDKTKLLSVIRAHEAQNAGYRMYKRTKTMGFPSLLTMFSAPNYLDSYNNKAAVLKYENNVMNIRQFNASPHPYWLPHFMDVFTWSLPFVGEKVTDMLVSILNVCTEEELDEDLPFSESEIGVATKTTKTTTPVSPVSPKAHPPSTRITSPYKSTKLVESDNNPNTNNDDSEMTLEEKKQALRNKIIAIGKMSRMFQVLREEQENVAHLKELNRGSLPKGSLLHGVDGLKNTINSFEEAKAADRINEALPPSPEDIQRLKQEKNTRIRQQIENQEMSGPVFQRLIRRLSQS

[7] = Luminescence Cell-Based Dose Retest to Confirm Inhibitors of Cancer Stem Cells. [Related pubchem assays (depositor defined):AID2717, AID2721]; format: functional, Homo sapiens; conditions: Homo sapiens
[8] = biological target: T3, RNA-binding protein pos-1 (Caenorhabditis elegans, UniProt G5EF15); assay: inhibitors of POS-1/mex-3 RNA binding, dose response, biochemical, fluorescence polarization (AID 1964);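 note: purified POS-1 fused to maltose binding protein made in E. coli; potency of compounds blocking POS-1 binding to fluorescent RNA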
T3 sequence (G5EF15 whole entry): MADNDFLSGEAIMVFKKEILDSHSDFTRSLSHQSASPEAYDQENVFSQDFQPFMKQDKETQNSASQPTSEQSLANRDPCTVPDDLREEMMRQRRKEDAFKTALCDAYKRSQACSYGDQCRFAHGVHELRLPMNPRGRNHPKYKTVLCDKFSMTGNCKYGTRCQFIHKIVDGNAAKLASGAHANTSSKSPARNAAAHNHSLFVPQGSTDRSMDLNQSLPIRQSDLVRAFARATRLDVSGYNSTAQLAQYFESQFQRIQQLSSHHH

[9] = biological target: T4, Zinc finger protein mex-5 (Caenorhabditis elegans, UniProt Q9XUB2); assay: MEX-5/TCR-2 RNA interaction inhibitors, dose response, biochemical, C. elegans, fluorescence polarization (AID 1960)
T4 sequence (Q9XUB2 whole entry): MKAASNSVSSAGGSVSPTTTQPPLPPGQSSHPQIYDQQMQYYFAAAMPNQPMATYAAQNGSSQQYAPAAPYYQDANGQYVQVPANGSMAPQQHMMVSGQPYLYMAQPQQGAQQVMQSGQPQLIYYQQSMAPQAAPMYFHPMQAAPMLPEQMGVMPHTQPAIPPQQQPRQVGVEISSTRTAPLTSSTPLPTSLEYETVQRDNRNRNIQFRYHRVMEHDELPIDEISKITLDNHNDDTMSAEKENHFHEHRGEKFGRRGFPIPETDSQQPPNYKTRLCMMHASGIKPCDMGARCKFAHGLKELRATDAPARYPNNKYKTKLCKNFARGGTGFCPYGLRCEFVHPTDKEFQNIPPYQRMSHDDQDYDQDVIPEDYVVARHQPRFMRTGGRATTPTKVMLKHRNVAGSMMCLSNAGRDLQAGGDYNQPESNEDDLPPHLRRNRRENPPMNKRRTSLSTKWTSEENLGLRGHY

[10] = tested on: H9c2; assay: cells; format: functional, cell-based; conditions: Rattus norvegicus, H9c2, Myocardium;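 note: confirmatory concentration-response retest of ultra-high-throughput screening hits for modulation of myocardial damage; cell death induced by hydrogen peroxide oxidative stress; compound pretreatment for 60 min then peroxide exposure for 2 h; potency is for protecting the cells against peroxide damage rather than for killing them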
[11] = tested on: BJ; assay: cytotoxicity toward Ras-transformed BJeLR fibroblasts, dose response, cell-based, alamar blue fluorescence, cherrypicked samples (AID 2631); format: functional; conditions: Homo sapiens;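 note: confirmatory dose-response assay in RAS-dependent BJ fibroblasts engineered with TERT, LT and ST, with cytotoxicity read by fluorescence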
[12] = inhibitors of SNCA 5'UTR-driven reporter translation, confirmation, H4 neuroglioma cells, luminescence (AID 1988); format: functional, cell-based
[13] = biological target: T5, Heat shock factor protein 1 (Mus musculus, UniProt P38532); assay: HSF1 potentiators in luciferase reporter cells, confirmation, cell-based, NIH3T3, luminescence, dose retest (AID 435004); format: functional;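 note: stress induced by proteasome inhibitor MG132 added 30 min after compound; luciferase reporter driven by HSF1 response element in NIH3T3 cells; actives raise luminescence as potentiators of the MG132 stress response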
T5 sequence (P38532 whole entry): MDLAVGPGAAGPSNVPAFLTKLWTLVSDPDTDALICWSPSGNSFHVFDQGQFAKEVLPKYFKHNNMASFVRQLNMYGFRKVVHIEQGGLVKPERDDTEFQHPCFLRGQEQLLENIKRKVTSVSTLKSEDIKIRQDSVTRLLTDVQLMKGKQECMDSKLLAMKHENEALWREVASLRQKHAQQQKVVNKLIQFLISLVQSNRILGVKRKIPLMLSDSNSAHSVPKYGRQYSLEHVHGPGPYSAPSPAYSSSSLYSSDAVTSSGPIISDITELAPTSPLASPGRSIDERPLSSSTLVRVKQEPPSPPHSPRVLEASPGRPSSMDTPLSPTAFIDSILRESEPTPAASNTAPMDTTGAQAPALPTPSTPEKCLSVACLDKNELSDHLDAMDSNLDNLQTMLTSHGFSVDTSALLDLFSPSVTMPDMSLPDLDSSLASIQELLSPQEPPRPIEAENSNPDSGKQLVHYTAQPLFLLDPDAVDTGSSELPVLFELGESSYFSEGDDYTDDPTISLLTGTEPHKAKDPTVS

[14] = tested on: BJ; assay: cells; format: functional, cell-based; conditions: Homo sapiens
[15] = tested on: BJ; assay: cytotoxicity toward BJ-TERT-LT-ST fibroblasts, dose response, cell-based, RAS-independent, luminescence (AID 1935); format: functional; conditions: Homo sapiens;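 note: BJ fibroblasts immortalized with TERT plus LT and ST oncogenes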
[16] = inhibitors of firefly luciferase expression or activity, dose response, H4 neuroglioma cells, luminescence (AID 1990); format: functional, cell-based
[17] = cytotoxicity toward DRD oncogenic fibroblasts, dose response, cell-based, non-viral oncogenic, luminescence (AID 1934); format: functional; conditions: Homo sapiens
[18] = tested on: BJ; assay: cytotoxicity toward BJ-TERT fibroblasts, dose response, cell-based, RAS-independent, luminescence (AID 1933); format: functional; conditions: Homo sapiens
[19] = Luminescence Cell-Based Dose Response HTS to Identify Inhibitors of 5'UTR Stem-Loop Driven Prion Protein mRNA Translation in H4 Neuroglioblastoma Cells. [Related pubchem assays: 1827 (Project Summary), 1813 (Primary HTS)]; format: functional
[20] = tested on: HeLa; assay: HeLa cell cytotoxicity, dose response, cytotoxicity control for MITF activator project, CellTiter-Glo luminescence, cherry-pick samples (AID 540259); format: functional, cell-based; conditions: Homo sapiens

Sequence of ATP-dependent molecular chaperone HSP82 (C4YTQ8 whole entry): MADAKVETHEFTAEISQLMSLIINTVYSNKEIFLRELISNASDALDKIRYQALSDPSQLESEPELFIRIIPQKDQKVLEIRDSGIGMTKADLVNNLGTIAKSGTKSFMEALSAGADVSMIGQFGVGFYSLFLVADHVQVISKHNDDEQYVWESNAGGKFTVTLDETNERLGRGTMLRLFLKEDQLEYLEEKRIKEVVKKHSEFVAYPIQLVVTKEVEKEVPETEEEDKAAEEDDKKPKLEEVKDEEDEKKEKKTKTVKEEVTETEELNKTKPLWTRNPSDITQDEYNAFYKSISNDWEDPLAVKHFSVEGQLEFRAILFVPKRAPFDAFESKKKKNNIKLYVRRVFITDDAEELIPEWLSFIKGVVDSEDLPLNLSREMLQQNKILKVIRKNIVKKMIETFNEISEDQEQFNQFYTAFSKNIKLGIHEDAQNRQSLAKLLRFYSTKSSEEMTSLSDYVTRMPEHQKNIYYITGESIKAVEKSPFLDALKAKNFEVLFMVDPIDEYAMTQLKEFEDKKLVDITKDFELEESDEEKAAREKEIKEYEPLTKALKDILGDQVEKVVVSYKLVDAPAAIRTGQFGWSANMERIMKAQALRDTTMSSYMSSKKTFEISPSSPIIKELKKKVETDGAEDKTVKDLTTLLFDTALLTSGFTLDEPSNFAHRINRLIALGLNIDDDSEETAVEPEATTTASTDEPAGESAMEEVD

SMILES	EC50 [1]	EC50 [2]	EC50 [3]	EC50 [4]	EC50 [5]	EC50 [6]	other results
COc1ccc2nc(SCC(C)=O)c(C#N)cc2c1	> 99 µM (inactive)	16.5 µM (active)	–	–	–	–	–
CCCC(=O)NC(c1ccco1)c1cc([N+](=O)[O-])c2cccnc2c1O (configuration not stated)	–	–	> 150 µM (inactive)	0.826 µM (active)	20.3 µM (active)	> 180 µM (inactive)	AC50 [7]: 2.02 µM (active)
CC1=NN(c2ccccc2)C(=O)/C1=C/c1cc(C)n(C2CC2)c1C	> 99 µM (inactive)	> 99 µM (inactive)	–	–	–	–	–
CCCCOC(=O)Cn1c2ccc(OC)cc2c2nc3ccccc3nc21	> 99 µM (inactive)	24.7 µM (inactive)	–	–	–	–	EC50 [8]: > 300 µM (not active); EC50 [9]: > 300 µM (not active)
CC(C)(C)c1ccc(OCCCC(=O)NNC(=O)c2ccccc2O)cc1	–	–	> 160 µM (inactive)	> 38 µM (not active)	51 µM (inconclusive)	> 180 µM (inactive)	IC50 [10]: > 79 µM (inactive)
O=C(NCc1ccccc1)c1c(Cl)nc(Cl)c(Cl)c1Cl	–	–	–	–	–	–	EC50 [11]: 3.69 µM (active); EC50 [12]: > 120 µM (not active); EC50 [13]: 57.8 µM (active); EC50 [14]: 77.2 µM (inconclusive); EC50 [15]: 7.26 µM (inconclusive); EC50 [16]: 10.3 µM (active); EC50 [17]: 9.83 µM (active); EC50 [18]: 6.46 µM (active); EC50 [19]: > 120 µM (not active)
O=C1/C(=C/c2cccnc2)CCc2c1[nH]c1ccccc21	–	–	> 150 µM (inactive)	1.95 µM (active)	> 160 µM (inactive)	> 180 µM (inactive)	AC50 [20]: 18.7 µM (active)

Reference: ChEMBL document CHEMBL1201862, “PubChem BioAssay data set” (2004)
